Laboratory results: US8268873B2 (priority 1999, dated 2012)
Like-named read-outs stand apart in the source and are kept apart here.

Experiments:
human PBMC T cells = experiment: cells; type: cell-based; conditions: 72 h, read-out: T-cells (IC50)
IMPDH human type II = IMPDH human type II (Homo sapiens, UniProt P12268); experiment: biochemical
human PBMC B cells = experiment: cells; type: cell-based; conditions: read-out: B-cells (IC50)

| Compound | IC50 (human PBMC T cells) [nM] | Ki (IMPDH human type II) [nM] | IC50 (human PBMC B cells; Homo sapiens, 72 h) [nM] | further results |
| --- | --- | --- | --- | --- |
| COc1cc(NC(=O)Nc2cccc(CNC(=O)OC[C@H](CC#N)NC(=O)OC(C)(C)C)c2)ccc1-c1cnco1 [Compound 10] | 100 to 1000 | – | – | – |
| CCC(CCC#N)OC(=O)NCc1cccc(NC(=O)Nc2ccc(-c3cnco3)c(OC)c2)c1 (stereo not shown) [Compound 45] | – | < 10 | – | – |
| COc1cc(NC(=O)Nc2cccc(CNC(=O)OC3CCC[C@H]3N3CCOCC3)c2)ccc1-c1cnco1 (stereo partly shown) [Compound 80] | – | – | < 100 | – |
| CC[C@@H](CC#N)OC(=O)NCc1cccc(NC(=O)Nc2ccc(-c3cnco3)c(OC)c2)c1 [Compound 88] | – | < 10 | – | – |
| CC[C@H](CCC#N)OC(=O)NCc1cccc(NC(=O)Nc2ccc(-c3cnco3)c(OC)c2)c1 [Compound 89] | < 100 | – | < 100 | – |
| CC[C@H](COC(=O)CN)OC(=O)NCc1cccc(NC(=O)Nc2ccc(-c3cnco3)c(OC)c2)c1 [Compound 95] | – | – | – | Ki (IMPDH human type II; IMPDH human type II, 200 μM IMP, 200 μM NAD, 37° C.): < 10 nM |
| COc1cc(NC(=O)Nc2cccc(CNC(=O)O[C@H](CN3CCCC3)c3ccccc3)c2)ccc1-c1cnco1 [Compound 98] | < 100 | – | < 100 | – |
| C=CC(COC(C)=O)OC(=O)NCc1cccc(NC(=O)Nc2ccc(-c3cnco3)c(OC)c2)c1 (stereo not shown) [Compound 133] | – | 10 to 50 | – | – |
| CCN(C)CCC(OC(=O)NCc1cccc(NC(=O)Nc2ccc(-c3cnco3)c(OC)c2)c1)c1ccccc1 (stereo not shown) [Compound 139] | 100 to 1000 | – | 100 to 1000 | – |
| COc1cc(NC(=O)Nc2cccc([C@H](C)NC(=O)O[C@H]3CCOC3)c2)ccc1C#N [Compound 185] | – | – | – | IC50 (human PBMC B cells): < 100 nM |
